Values of other authors in article PMC7732027 (Bioorganic & medicinal chemistry letters, 2019).

Tested on: A/H3N2 viruses with PA I38T/F substitutions
Conditions: cited from earlier work

Structure (SMILES): COC(=O)OCOc1c2n(ccc1=O)N([C@@H]1c3ccccc3SCc3c1ccc(F)c3F)[C@@H]1COCCN1C2=O [BXM, baloxavir marboxil]
- reduction in BXM susceptibility: more than 10 fold
